{"source": "paper PMC8362273", "about": "(Molecular cell, 2020)", "molecules": {"B1": {"name": "Gsk, inosine-guanosine kinase (E. coli), wild type, traceless after Sumo release (enzyme, UniProt P0AEW6 1-434, looked up)", "chain": "MKFPGKRKSKHYFPVNARDPLLQQFQPENETSAAWVVGIDQTLVDIEAKVDDEFIERYGLSAGHSLVIEDDVAEALYQELKQKNLITHQFAGGTIGNTMHNYSVLADDRSVLLGVMCSNIEIGSYAYRYLCNTSSRTDLNYLQGVDGPIGRCFTLIGESGERTFAISPGHMNQLRAESIPEDVIAGASALVLTSYLVRCKPGEPMPEATMKAIEYAKKYNVPVVLTLGTKFVIAENPQWWQQFLKDHVSILAMNEDEAEALTGESDPLLASDKALDWVDLVLCTAGPIGLYMAGFTEDEAKRKTQHPLLPGAIAEFNQYEFSRAMRHKDCQNPLRVYSHIAPYMGGPEKIMNTNGAGDGALAALLHDITANSYHRSNVPNSSKHKFTWLTYSSLAQVCKYANRVSYQVLNQHSPRLTRGLPEREDSLEESYWDR"}, "B2": {"name": "Gsk(L308S) (enzyme, E. coli, UniProt P0AEW6 1-434, looked up)", "chain": "B1 chain with L308S"}, "B3": {"name": "Gsk, inosine-guanosine kinase (E. coli), crystallisation construct with N-terminal Gly-Ser-His scar (enzyme)", "chain": "GSHMKFPGKRKSKHYFPVNARDPLLQQFQPENETSAAWVVGIDQTLVDIEAKVDDEFIERYGLSAGHSLVIEDDVAEALYQELKQKNLITHQFAGGTIGNTMHNYSVLADDRSVLLGVMCSNIEIGSYAYRYLCNTSSRTDLNYLQGVDGPIGRCFTLIGESGERTFAISPGHMNQLRAESIPEDVIAGASALVLTSYLVRCKPGEPMPEATMKAIEYAKKYNVPVVLTLGTKFVIAENPQWWQQFLKDHVSILAMNEDEAEALTGESDPLLASDKALDWVDLVLCTAGPIGLYMAGFTEDEAKRKTQHPLLPGAIAEFNQYEFSRAMRHKDCQNPLRVYSHIAPYMGGPEKIMNTNGAGDGALAALLHDITANSYHRSNVPNSSKHKFTWLTYSSLAQVCKYANRVSYQVLNQHSPRLTRGLPEREDSLEESYWDR"}}, "key": {"Gsk [1]": {"tested_on": "Gsk", "details": "ref Kawasaki et al., 2000, cited from earlier work; for Km: Mori et al., 1995"}, "GuaB (IMP dehydrogenase)": {"tested_on": "GuaB (IMP dehydrogenase)", "assay": "IMP-dehydrogenase", "assay_type": "biochemical, E. coli", "details": "ppGpp up to 1 mM (Figure S1B)"}, "Gsk [2]": {"tested_on": "Gsk", "assay": "Inosine kinase", "assay_type": "biochemical, E. coli", "details": "GuaB-coupled assay (Figure 1C)"}, "Gsk(K383A)": {"tested_on": "Gsk(K383A)", "assay_type": "biochemical, E. coli", "details": "Figure 2F, S4A"}, "[3]": {"biological_target": "PurA (adenylosuccinate synthase) (Escherichia coli, UniProt P0A7D4)", "sequence (P0A7D4 whole entry)": "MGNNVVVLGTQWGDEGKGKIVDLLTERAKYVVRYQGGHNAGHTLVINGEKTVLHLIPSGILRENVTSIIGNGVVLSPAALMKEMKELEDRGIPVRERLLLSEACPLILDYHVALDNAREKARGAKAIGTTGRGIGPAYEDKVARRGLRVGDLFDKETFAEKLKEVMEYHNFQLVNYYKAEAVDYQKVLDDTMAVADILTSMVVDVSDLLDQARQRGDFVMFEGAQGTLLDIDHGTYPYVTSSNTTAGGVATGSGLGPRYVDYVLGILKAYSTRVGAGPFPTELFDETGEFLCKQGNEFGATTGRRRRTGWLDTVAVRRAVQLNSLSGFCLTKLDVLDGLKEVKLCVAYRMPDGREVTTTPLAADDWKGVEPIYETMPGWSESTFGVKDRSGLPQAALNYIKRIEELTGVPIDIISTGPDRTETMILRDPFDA", "assay": "ITC of ppGpp with PurA", "assay_type": "binding, E. coli"}, "Gsk [4]": {"tested_on": "Gsk", "assay": "Inosine/guanosine kinase", "assay_type": "biochemical, E. coli"}, "[5]": {"biological_target": "Gsk (inosine-guanosine kinase) (Escherichia coli, UniProt P0AEW6)", "assay": "Isothermal titration calorimetry", "assay_type": "binding, E. coli"}, "[6]": {"tested_on": "Gsk variants R7A, F321A, K383A, S393A, Q396A", "details": "each of R7A, in vitro (Figure 2G)"}, "SEC-MALS [7]": {"biological_target": "the molecule itself", "assay": "SEC-MALS"}, "SEC-MALS [8]": {"biological_target": "the molecule itself", "assay": "SEC-MALS", "remark": "listed apart in the source"}, "dynamic light scattering": {"biological_target": "the molecule itself", "assay": "dynamic light scattering"}, "crystal structure": {"biological_target": "the molecule itself", "assay": "crystal structure"}}, "note": "Changes are numbered by the printed parent chain. Names and notes keep the numbering of the source. “Also recorded” adds a separate entry of the source. Like-named read-outs stand apart in the source and are kept apart here.", "data": [{"molecule": "O=c1[nH]cnc2c1ncn2[C@@H]1O[C@H](CO)[C@@H](O)[C@H]1O", "note": "[inosine]", "values": [{"measurement": "Km", "setting": "Gsk [1]; read-out: Km of Gsk for inosine", "value": 1500, "unit": "µM"}]}, {"molecule": "Nc1nc2c(ncn2[C@@H]2O[C@H](COP(=O)(O)OP(=O)(O)O)[C@@H](OP(=O)(O)OP(=O)(O)O)[C@H]2O)c(=O)[nH]1", "note": "[ppGpp, Guanosine tetraphosphate]", "values": [{"measurement": "inhibition of GuaB", "setting": "GuaB (IMP dehydrogenase)", "value": "did not observe substantial inhibition; also recorded: could not reproduce the inhibition"}, {"measurement": "inhibition of inosine-kinase activity compared with GDP", "setting": "Gsk [2]", "value": "stronger inhibitor than GDP"}, {"measurement": "sensitivity of Gsk(K383A) to inhibitor", "setting": "Gsk(K383A)", "value": "completely insensitive"}, {"measurement": "Kd", "setting": "[3]", "value": 61, "unit": "µM"}, {"measurement": "type of inhibition with respect to ATP", "setting": "Gsk [4]; 1 mM inosine, varied ATP-Mg", "value": "mixed-type inhibitor"}, {"measurement": "type of inhibition with respect to inosine", "setting": "Gsk [4]; Lineweaver-Burk plotting, 5 mM ATP-Mg, varied inosine", "value": "counter-competitive, or cooperative, inhibitor"}, {"measurement": "fold inhibition of Gsk by ppGpp binding", "setting": "Gsk [4]; guanosine kinase activity, 50 nM Gsk (Figure 3J)", "value": "~ 60 fold"}, {"measurement": "inhibition of inosine- and guanosine-kinase activities of Gsk", "setting": "Gsk [4]; in vitro, PK-LDH coupled (Figure S1A)", "value": "potently inhibited"}, {"measurement": "Kd", "setting": "[5]", "value": 0.1, "unit": "µM"}, {"measurement": "affinity for Gsk relative to that for GDP (fold stronger)", "setting": "[5]; ITC", "value": "about 20 fold"}, {"measurement": "gain in binding heat of ppGpp when Gsk is bound to guanosine", "setting": "[5]; ITC, Gsk pre-saturated with guanosine vs without", "value": 10.8, "unit": "kcal/mol"}, {"measurement": "loss of sensitivity to ppGpp inhibition (fold less sensitive than WT Gsk)", "setting": "[6]", "value": "at least 5 fold"}]}, {"molecule": "Nc1nc2c(ncn2[C@@H]2O[C@H](COP(=O)(O)OP(=O)(O)O)[C@@H](O)[C@H]2O)c(=O)[nH]1", "note": "[GDP]", "values": [{"measurement": "sensitivity of Gsk(K383A) to inhibitor", "setting": "Gsk(K383A)", "value": "completely insensitive"}, {"measurement": "feedback inhibition of Gsk", "setting": "Gsk [1]", "value": "provides feedback inhibition"}]}, {"molecule": "Nc1nc2c(ncn2[C@@H]2O[C@H](COP(=O)(O)OP(=O)(O)OP(=O)(O)O)[C@@H](OP(=O)(O)OP(=O)(O)O)[C@H]2O)c(=O)[nH]1", "note": "[pppGpp, Guanosine pentaphosphate]", "values": [{"measurement": "affinity for Gsk", "setting": "[5]; ITC (Figure S2I, Table S1), compared with ppGpp", "value": "much weaker affinity"}]}, {"molecule": "Nc1nc2c(ncn2[C@@H]2O[C@H](CO)[C@@H](O)[C@H]2O)c(=O)[nH]1", "note": "[guanosine]", "values": [{"measurement": "gain in binding heat for guanosine when Gsk is bound to ppGpp", "setting": "[5]; ITC, Gsk saturated with ppGpp vs without", "value": 8.7, "unit": "kcal/mol"}, {"measurement": "Km", "setting": "Gsk [1]; read-out: Km of Gsk for guanosine", "value": 8, "unit": "µM"}]}, {"molecule": "B1", "values": [{"measurement": "stoichiometry N", "setting": "SEC-MALS [7]", "value": 2}, {"measurement": "stoichiometry N", "setting": "SEC-MALS [8]", "value": 4}]}, {"molecule": "B2", "values": [{"measurement": "stoichiometry N", "setting": "dynamic light scattering", "value": 2}]}, {"molecule": "B3", "values": [{"measurement": "binding result", "setting": "crystal structure", "value": "binds"}]}]}
